Results published in article PMC2364952, “The Anti-Inflammatory Activity of Boron Derivatives in Rodents” (Metal-Based Drugs, 1995).

Experiments:
[1] = test system: carrageenan-induced pleural fluid; experiment: Anti-pleurisy screen; format: in vivo, Sprague Dawley male rats; conditions: for pleurisy edema in rats: 8 mg/kg; for Rat Pleurisy: rats, 8 mg/kg I.P., 1 h before and 3 h after carrageenan, Table 2;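 as to Rat Pleurisy: Pleural fluid volume as percent of control rats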
neutral cathepsin = experiment: Cathepsin activity, UMR-106 osteosarcoma cells; format: cell-based; conditions: Table 6; read-out: IC50 Neutral Cathepsin, Rat UMR-106 Bone Osteosarcoma
trypsin [2] = experiment: Trypsin activity, UMR-106 osteosarcoma cells; format: cell-based; conditions: Table 6; read-out: IC50 Trypsin, Rat UMR-106 Bone Osteosarcoma
aryl sulphatase = experiment: Aryl sulfatase activity, mouse macrophages; format: cell-based, mouse (J774 macrophages); conditions: Table 3; read-out: IC50 Aryl Sulfatase, Mouse Macrophage
[3] = molecular target: T1, prostaglandin cyclooxygenase (Bos taurus, UniProt O62664); experiment: Prostaglandin synthetase from bovine seminal vesicles; format: biochemical; conditions: Table 7; read-out: IC50 Prostaglandin Cyclooxygenase, Beef Seminal Vesicle
T1 construct: purified commercial prostaglandin synthetase from bovine seminal vesicles (Miles Research Products); purchased Miles Research Products; host or cells: bovine seminal vesicles (tissue preparation)
T1 sequence (O62664 25-600): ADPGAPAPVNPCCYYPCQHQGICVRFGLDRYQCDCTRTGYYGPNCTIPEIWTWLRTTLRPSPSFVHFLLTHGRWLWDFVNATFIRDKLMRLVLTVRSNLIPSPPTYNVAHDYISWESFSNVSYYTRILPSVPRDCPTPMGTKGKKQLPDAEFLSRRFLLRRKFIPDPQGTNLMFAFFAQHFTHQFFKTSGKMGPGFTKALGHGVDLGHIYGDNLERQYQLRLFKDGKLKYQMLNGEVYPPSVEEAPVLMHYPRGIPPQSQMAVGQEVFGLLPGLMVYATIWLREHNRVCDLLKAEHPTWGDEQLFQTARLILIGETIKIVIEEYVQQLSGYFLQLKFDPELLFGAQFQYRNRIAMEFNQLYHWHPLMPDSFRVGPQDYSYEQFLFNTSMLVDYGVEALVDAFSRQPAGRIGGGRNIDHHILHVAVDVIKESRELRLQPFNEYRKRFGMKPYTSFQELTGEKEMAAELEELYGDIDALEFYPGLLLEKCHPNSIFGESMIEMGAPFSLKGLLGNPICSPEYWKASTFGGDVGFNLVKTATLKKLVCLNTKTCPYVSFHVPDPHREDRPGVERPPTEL

[4] = test system: carrageenan-induced inflammation of paw; experiment: Carrageenan-induced paw edema, rats; format: in vivo, Sprague Dawley male rats; conditions: for Rat Inflammatory: 8 mg/kg x 2, I.P., Table 2;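 as to Rat Inflammatory: paw weight increase as percent of control rats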
[5] = test system: acetic acid induced stretch reflex; experiment: Local analgesic screen (acetic acid writhing); format: in vivo, CF1 mice; conditions: for Mice Writhing Reflex: 8 mg/kg I.P., Table 2; for reduction of the reflex action: mice, acetic acid induced local pain, 8 mg/kg
elastase [6] = experiment: Elastase activity, UMR-106 osteosarcoma cells; format: cell-based; conditions: Table 6; read-out: IC50 Elastase, Rat UMR-106 Bone Osteosarcoma
[7] = test system: tail flick response to heat; experiment: Hot plate tail flick screen; format: in vivo, CF1 male mice; conditions: for Mice Tail Flick: 8 mg/kg I.P., hot plate, Table 2; for tail flick assay time: mice, 8 mg/kg
5'-lipoxygenase [8] = molecular target: T2, 5'-lipoxygenase (Mus musculus, UniProt P48999); experiment: 5'-Lipoxygenase activity, mouse macrophages; format: cell-based; conditions: Table 7; read-out: IC50 5'-Lipoxygenase, Mouse Macrophage
T2 construct: endogenous in cells; host or cells: mouse macrophages (J774A as maintained above)
T2 sequence (P48999 1-674): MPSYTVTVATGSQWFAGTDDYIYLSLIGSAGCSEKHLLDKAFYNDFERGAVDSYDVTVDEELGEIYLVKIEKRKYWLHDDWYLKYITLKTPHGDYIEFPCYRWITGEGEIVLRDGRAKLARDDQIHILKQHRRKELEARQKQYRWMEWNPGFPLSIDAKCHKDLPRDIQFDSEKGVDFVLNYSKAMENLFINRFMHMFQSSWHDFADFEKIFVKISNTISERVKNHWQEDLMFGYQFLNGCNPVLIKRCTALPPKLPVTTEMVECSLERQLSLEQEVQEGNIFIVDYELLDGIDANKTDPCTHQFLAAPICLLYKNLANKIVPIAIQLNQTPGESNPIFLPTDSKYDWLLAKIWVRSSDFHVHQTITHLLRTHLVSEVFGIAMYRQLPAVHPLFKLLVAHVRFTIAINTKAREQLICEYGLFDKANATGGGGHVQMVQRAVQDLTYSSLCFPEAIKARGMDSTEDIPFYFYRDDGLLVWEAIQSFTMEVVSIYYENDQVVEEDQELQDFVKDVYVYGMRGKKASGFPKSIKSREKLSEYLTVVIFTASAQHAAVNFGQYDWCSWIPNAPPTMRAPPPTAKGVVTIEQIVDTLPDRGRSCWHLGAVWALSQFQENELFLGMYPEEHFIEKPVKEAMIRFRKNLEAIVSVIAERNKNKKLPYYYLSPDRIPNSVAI

cathepsin = experiment: Cathepsin activity, mouse macrophages; format: cell-based, mouse (J774 macrophages); conditions: Table 3; read-out: IC50 Cathepsin, Mouse Macrophage
5'-lipoxygenase [9] = molecular target: T3, 5'-lipoxygenase (Homo sapiens, UniProt P09917); experiment: 5'-Lipoxygenase activity, human leukocytes; format: cell-based; conditions: Table 7
T3 construct: endogenous in cells; host or cells: RMPI 1788 human leukocytes
T3 sequence (P09917 1-674): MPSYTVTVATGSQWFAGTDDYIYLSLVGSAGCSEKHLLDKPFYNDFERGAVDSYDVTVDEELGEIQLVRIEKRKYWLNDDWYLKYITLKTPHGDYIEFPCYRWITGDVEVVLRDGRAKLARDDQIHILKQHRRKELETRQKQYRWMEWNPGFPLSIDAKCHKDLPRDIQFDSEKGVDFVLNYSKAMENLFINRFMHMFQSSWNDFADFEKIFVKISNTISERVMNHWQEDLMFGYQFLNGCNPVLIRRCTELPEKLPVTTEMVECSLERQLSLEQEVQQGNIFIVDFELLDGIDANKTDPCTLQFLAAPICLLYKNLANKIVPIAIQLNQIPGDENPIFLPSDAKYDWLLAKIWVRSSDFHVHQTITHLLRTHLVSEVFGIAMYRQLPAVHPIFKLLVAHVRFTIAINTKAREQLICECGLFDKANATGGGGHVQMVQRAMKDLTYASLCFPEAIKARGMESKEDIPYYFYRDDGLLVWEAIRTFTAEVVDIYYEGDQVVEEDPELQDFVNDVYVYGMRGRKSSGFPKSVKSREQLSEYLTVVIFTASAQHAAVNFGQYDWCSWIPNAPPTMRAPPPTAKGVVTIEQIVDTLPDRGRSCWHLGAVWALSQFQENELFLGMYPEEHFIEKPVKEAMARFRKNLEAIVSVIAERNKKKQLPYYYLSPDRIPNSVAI

acid phosphatase = experiment: Acid phosphatase activity, mouse macrophages; format: cell-based, mouse (J774 macrophages); conditions: Table 3; read-out: IC50 Acid Phosphatase, Mouse Macrophage
[10] = test system: adjuvant (M. butyricum) arthritis; experiment: Chronic adjuvant arthritic screen; format: in vivo; conditions: rats; for Rat Chronic Arthritis: 8 mg/kg/day I.P., Day 3 to Day 21, Table 2
[11] = test system: prostaglandin cyclooxygenase; experiment: Prostaglandin cyclooxygenase activity, Be Sal cells; format: cell-based, human (Be Sal osteofibrolytic cells); conditions: Table 7; read-out: IC50 Prostaglandin Cyclooxygenase, Be Sal Osteofibro
[12] = molecular target: prostaglandin cyclooxygenase; experiment: Prostaglandin cyclooxygenase activity, macrophages; format: cell-based, mouse (J774 macrophages); conditions: Table 7
elastase [13] = experiment: Elastase activity, mouse macrophages; format: cell-based, mouse (J774 macrophages); conditions: Table 5; read-out: IC50 Elastase, Mouse Macrophage
trypsin [14] = experiment: Trypsin proteolytic activity, mouse macrophages; format: cell-based, mouse (J774 macrophages); conditions: Table 5; read-out: IC50 Trypsin, Mouse Macrophage

Row | Compound | pleurisy edema in rats [1] | Rat Pleurisy [1] | IC50 (neutral cathepsin) | IC50 (trypsin [2]) | IC50 (aryl sulphatase) | IC50 [3] | Rat Inflammatory [4] | Mice Writhing Reflex [5] | reduction of the reflex action [5] | IC50 (elastase [6]) | Mice Tail Flick [7] | IC50 (5'-lipoxygenase [8]) | IC50 (cathepsin) | IC50 (5'-lipoxygenase [9]) | IC50 (acid phosphatase) | Rat Chronic Arthritis [10] | IC50 [11] | IC50 [12] | IC50 (elastase [13]) | IC50 (trypsin [14]) | also measured
1 | CCCCCCCCCCCCCCCC[N+](C)(C)[BH2-]C(=O)O [Compound 8] | reduced significantly | 19 % of control | 6.59 µM | 6.56 µM | 9.71 µM | 2.43 µM | 59 % of control | 16 % of control | 80% | 9.58 µM | 167 % of control | 8.76 µM | 7.18 µM | 1.53 µM | 0.94 µM | 40 % of control | 6.77 µM | 2.55 µM | 1.8 µM | 1.26 µM | reduction in induced edema in rats ([4]; 8 mg/kg x 2): at least 40%; tail flick assay time [7]: increased; activity in chronic arthritis screen ([10]; 8 mg/kg/day): significantly active
2 | O=C(O)[BH2-][P+](c1ccccc1)(c1ccccc1)c1ccccc1 [Compound 12] | reduced significantly | 28 % of control | 5.81 µM | 5.67 µM | 8.58 µM | 7.6 µM | 61 % of control | 19 % of control | 80% | 8.86 µM | 197 % of control | 9.8 µM | 5.52 µM | 4.77 µM | 1.08 µM | 49 % of control | 5.49 µM | 3.53 µM | 3.04 µM | 1.77 µM | tail flick assay time [7]: increased; activity in chronic arthritis screen ([10]; 8 mg/kg/day): significantly active
3 | C[N+](C)(C)[BH2-]C#N [Compound 34] | reduced significantly | 65 % of control | 5.46 µM | 2.62 µM | 9.29 µM | 5.9 µM | 65 % of control | 18 % of control | 80% | 8.99 µM |  | 8.07 µM | 6.34 µM | 6.43 µM | 1.05 µM | 4 % of control | 4.26 µM | 5.88 µM | 1.35 µM | 1.41 µM | reduction of pannus ([10]; 8 mg/kg/day): greater than 75%
